In patent publication US10710980B2, “Aminopyridine derivatives and their use as selective ALK-2 inhibitors” (priority 2016, dated 2020) one finds IC50 data, which are given here for 20 compounds.

The structures appear in SMILES notation.

Test [1] addresses T1, wild-type ALK2 (aa172-499) (Homo sapiens (Human), UniProt Q04771). Nature of the test: ADPGlo biochemical autophosphorylation assay, ALK2. The settings on record: 15 μm ATP, 60 min at 32° C.
In the next test the target is ALK3 (aa198-525) (Homo sapiens (Human), UniProt P36894). Briefly: ADPGlo biochemical autophosphorylation assay, ALK3. The settings on record: 15 μm ATP, 60 min at 32° C.
Test [2] deals with T1, wild-type ALK2 (aa172-499). Nature of the test: Caliper biochemical peptide phosphorylation assay, ALK2. The note with it: 15 μm ATP, 60 min at 30° C.; read-out: ALK2 EPK (IC50).
For another test, the target named is ALK1 (aa166-493) (Homo sapiens (Human), UniProt P37023). Briefly: Caliper biochemical peptide phosphorylation assay, ALK1. The note with it: 15 μm ATP, 60 min at 30° C.; read-out: ALK1 EPK (IC50).
A further test concerns the target ALK5 (aa162-503) (Homo sapiens (Human), UniProt P36897). Nature of the test: Caliper biochemical peptide phosphorylation assay, ALK5. The note with it: 15 μm ATP, 60 min at 30° C.; read-out: ALK5 EPK (IC50).
For a further test, the target named is ALK6 (aa168-495) (Homo sapiens (Human), UniProt O00238). Nature of the test: Caliper biochemical peptide phosphorylation assay, ALK6. The settings on record: 15 μm ATP, 60 min at 30° C.; read-out: ALK6 EPK (IC50).
The subject of test [3] is BMP response element (BRE) luciferase reporter in HuH7 cells, BMP6 stimulated. Briefly: BMP signaling reporter gene assay. The settings on record: Homo sapiens, Huh-7; HuH7 BRE-luciferase, BMP6 100 ng/ml, 5 hours; read-out: MSD BMP RGA IC50. It counts as cell-based.

What is called IC50 is the midpoint of a concentration-inhibition curve.

Sequence of ALK6 (aa168-495) (O00238 168-495): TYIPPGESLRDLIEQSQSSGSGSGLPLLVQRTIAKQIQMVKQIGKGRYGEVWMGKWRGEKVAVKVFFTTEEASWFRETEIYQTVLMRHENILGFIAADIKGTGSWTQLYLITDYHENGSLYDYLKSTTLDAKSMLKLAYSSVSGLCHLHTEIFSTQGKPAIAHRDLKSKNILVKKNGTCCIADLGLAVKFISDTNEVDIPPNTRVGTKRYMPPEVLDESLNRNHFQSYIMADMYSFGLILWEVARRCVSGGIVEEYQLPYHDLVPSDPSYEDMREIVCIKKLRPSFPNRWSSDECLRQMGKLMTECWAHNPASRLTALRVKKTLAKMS
Sequence of ALK5 (aa162-503) (P36897 162-503): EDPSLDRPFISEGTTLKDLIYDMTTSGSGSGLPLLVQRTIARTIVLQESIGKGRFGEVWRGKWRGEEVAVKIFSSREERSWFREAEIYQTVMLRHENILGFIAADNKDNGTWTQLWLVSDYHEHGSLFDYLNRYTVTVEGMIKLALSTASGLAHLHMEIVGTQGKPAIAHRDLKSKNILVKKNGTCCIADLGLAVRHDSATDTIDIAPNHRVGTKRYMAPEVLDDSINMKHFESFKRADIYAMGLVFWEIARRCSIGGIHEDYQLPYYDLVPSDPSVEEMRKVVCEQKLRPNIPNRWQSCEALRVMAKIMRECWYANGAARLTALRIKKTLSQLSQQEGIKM
T1 sequence (Q04771 172-499): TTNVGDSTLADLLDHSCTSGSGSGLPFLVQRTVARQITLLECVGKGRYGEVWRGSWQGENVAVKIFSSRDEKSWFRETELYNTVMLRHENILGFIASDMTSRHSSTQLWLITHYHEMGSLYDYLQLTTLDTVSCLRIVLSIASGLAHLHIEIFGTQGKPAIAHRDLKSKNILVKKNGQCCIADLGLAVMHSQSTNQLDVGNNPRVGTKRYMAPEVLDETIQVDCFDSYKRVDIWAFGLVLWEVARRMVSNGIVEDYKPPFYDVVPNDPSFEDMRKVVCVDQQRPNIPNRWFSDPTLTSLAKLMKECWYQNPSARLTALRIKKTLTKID
Sequence of ALK1 (aa166-493) (P37023 166-493): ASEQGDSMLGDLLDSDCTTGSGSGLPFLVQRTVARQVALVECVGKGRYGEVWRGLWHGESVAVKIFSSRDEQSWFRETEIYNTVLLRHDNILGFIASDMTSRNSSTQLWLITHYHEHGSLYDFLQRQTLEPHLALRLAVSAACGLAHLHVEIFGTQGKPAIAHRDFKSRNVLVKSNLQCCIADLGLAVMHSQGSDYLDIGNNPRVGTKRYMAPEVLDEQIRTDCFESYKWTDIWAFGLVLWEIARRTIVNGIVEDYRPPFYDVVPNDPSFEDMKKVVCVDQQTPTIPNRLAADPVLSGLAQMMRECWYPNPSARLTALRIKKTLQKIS
Sequence of ALK3 (aa198-525) (P36894 198-525): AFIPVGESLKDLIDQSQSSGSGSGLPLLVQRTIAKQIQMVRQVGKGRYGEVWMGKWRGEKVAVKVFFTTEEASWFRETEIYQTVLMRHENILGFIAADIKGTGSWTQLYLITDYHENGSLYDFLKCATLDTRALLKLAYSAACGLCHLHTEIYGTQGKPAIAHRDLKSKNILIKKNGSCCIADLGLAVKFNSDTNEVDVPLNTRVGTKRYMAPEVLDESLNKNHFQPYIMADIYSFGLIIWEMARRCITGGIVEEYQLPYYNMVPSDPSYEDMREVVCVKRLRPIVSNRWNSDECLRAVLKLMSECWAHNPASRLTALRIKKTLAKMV

Turning to `Nc1ncc(-c2ccc(OCCCN3CCCCC3)cc2)cc1C(=O)NC1CCCCC1` [Example 43, 2-amino-N-cyclohexyl-5-(4-(3-(piperidin-1-yl)propoxy)phenyl)nicotinamide], the IC50 in test [1] worked out at 31 nM; against ALK3 (aa198-525), 2350 nM; in test [2], 25 nM; on ALK1 (aa166-493), 765 nM; on ALK5 (aa162-503), 3500 nM; at ALK6 (aa168-495), 11000 nM. Further, the IC50 in test [3] turned out to be 130 nM.
As to `Nc1ncc(-c2ccc([C@@]34C[C@@H]3CN(CCOCC(F)(F)F)C4)cc2)cc1C(=O)N[C@H]1CC[C@H](O)CC1` [Example 41, 2-amino-N-((1r,4R)-4-hydroxycyclohexyl)-5-(4-((1R,5S)-3-(2-(2,2,2-trifluoroethoxy)ethyl)-3-azabicyclo[3.1.0]hexan-1-yl)phenyl)nicotinamide], the IC50 in test [1] was determined as 19 nM; at ALK3 (aa198-525), 1800 nM; in test [2], 23 nM; on ALK1 (aa166-493) it was 310 nM; at ALK5 (aa162-503), 6700 nM; on ALK6 (aa168-495), 6900 nM. The IC50 in test [3] turned out to be 158 nM.
As for `C[C@H](c1ccc(-c2cnc(N)c(C(=O)NC34CC5CC(CC(O)(C5)C3)C4)c2)cc1)N1CC2(COC2)C1` [Example 68, 5-(4-((R)-1-(2-oxa-6-azaspiro[3.3]heptan-6-yl)ethyl)phenyl)-2-amino-N-((1r,3R)-3-hydroxyadamantan-1-yl)nicotinamide], the IC50 in test [1] came to 34 nM; at ALK3 (aa198-525), 8000 nM; in test [2], 49 nM; on ALK1 (aa166-493), 2500 nM; on ALK5 (aa162-503), 10000 nM; at ALK6 (aa168-495) it was 10000 nM. Moreover, the IC50 in test [3] is 950 nM.
With `Nc1ncc(-c2ccc([C@]34C[C@H]3CN(CCC(F)(F)F)C4)cc2)cc1C(=O)N[C@H]1CC[C@H](O)CC1` [Example 17, 2-amino-N-((1r,4S)-4-hydroxycyclohexyl)-5-(4-((1S,5R)-3-(3,3,3-trifluoropropyl)-3-azabicyclo[3.1.0]hexan-1-yl)phenyl)nicotinamide], the IC50 in test [1] amounted to 12 nM; against ALK3 (aa198-525) it was 2000 nM; in test [2] it was 14 nM; at ALK1 (aa166-493) it was 110 nM; at ALK5 (aa162-503), 1600 nM; on ALK6 (aa168-495), 2400 nM. For the same compound, the IC50 in test [3] amounted to 150 nM.
With `Nc1ncc(-c2ccc([C@]34C[C@H]3CN(CC3COC3)C4)cc2)cc1C(=O)N[C@H]1CC[C@H](O)CC1` [Example 38, 2-amino-N-((1r,4S)-4-hydroxycyclohexyl)-5-(4-((1S,5R)-3-(oxetan-3-ylmethyl)-3-azabicyclo[3.1.0]hexan-1-yl)phenyl)nicotinamide], the IC50 in test [1] is 7 nM; at ALK3 (aa198-525), 1300 nM; in test [2], 28 nM; on ALK1 (aa166-493), 160 nM; at ALK5 (aa162-503) it was 1500 nM; on ALK6 (aa168-495) it was 2600 nM. In test [3], the IC50 was 58 nM.
Take `N#CCCN1C[C@@H]2C[C@]2(c2ccc(-c3cnc(N)c(C(=O)N[C@H]4CC[C@H](O)CC4)c3)cc2)C1` [Example 51, 2-amino-5-(4-((1S,5R)-3-(2-cyanoethyl)-3-azabicyclo[3.1.0]hexan-1-yl)phenyl)-N-((1r,4S)-4-hydroxycyclohexyl)nicotinamide]: the IC50 was 16 nM in test [1]; 780 nM at ALK3 (aa198-525); 31 nM in test [2]; 120 nM at ALK1 (aa166-493); 1400 nM on ALK5 (aa162-503); 1700 nM on ALK6 (aa168-495). In test [3], the IC50 worked out at 64 nM.
In the case of `Nc1ncc(-c2ccc([C@]34C[C@H]3CN(C3CCOCC3)C4)cc2)cc1C(=O)NC12CC(CO)(C1)C2` [Example 28, 2-amino-N-(3-(hydroxymethyl)bicyclo[1.1.1]pentan-1-yl)-5-(4-((1S,5R)-3-(tetrahydro-2H-pyran-4-yl)-3-azabicyclo[3.1.0]hexan-1-yl)phenyl)nicotinamide], the IC50 is 11 nM in test [1]; 530 nM at ALK3 (aa198-525); 18 nM in test [2]; 250 nM at ALK1 (aa166-493); 9400 nM at ALK5 (aa162-503); 3300 nM at ALK6 (aa168-495). The IC50 in test [3] came to 17 nM.
For `Nc1ncc(-c2ccc([C@]34C[C@H]3CN(C3CCC(F)(F)CC3)C4)cc2)cc1C(=O)N[C@H]1CC[C@H](O)CC1` [Example 27, 2-amino-5-(4-((1S,5R)-3-(4,4-difluorocyclohexyl)-3-azabicyclo[3.1.0]hexan-1-yl)phenyl)-N-((1r,4S)-4-hydroxycyclohexyl)nicotinamide], the IC50 was found to be 10 nM in test [1]; 18 nM in test [2]; 135 nM on ALK1 (aa166-493); 1600 nM on ALK6 (aa168-495); 59 nM in test [3].
For the compound `Nc1ncc(-c2ccc([C@@]34C[C@@H]3CN(C3CCC(F)(F)CC3)C4)cc2)cc1C(=O)N[C@H]1CC[C@H](O)CC1` [Example 25, 2-amino-5-(4-((1R,5S)-3-(4,4-difluorocyclohexyl)-3-azabicyclo[3.1.0]hexan-1-yl)phenyl)-N-((1r,4R)-4-hydroxycyclohexyl)nicotinamide], the IC50 in test [1] came to 9 nM; in test [2], 18 nM; on ALK6 (aa168-495), 3000 nM; in test [3], 35 nM.
With `Nc1ncc(-c2ccc([C@@]34C[C@@H]3CN(C3CCOCC3)C4)cc2)cc1C(=O)N[C@H]1CC[C@H](O)CC1` [Example 19, 2-amino-N-((1r,4R)-4-hydroxycyclohexyl)-5-(4-((1R,5S)-3-(tetrahydro-2H-pyran-4-yl)-3-azabicyclo[3.1.0]hexan-1-yl)phenyl)nicotinamide], the IC50 was 12 nM in test [1], 105 nM at ALK1 (aa166-493), 2250 nM at ALK6 (aa168-495) and 21 nM in test [3].
For `Nc1ncc(-c2ccc([C@]34C[C@H]3CN(C3CCOCC3)C4)cc2)cc1C(=O)N[C@H]1CC[C@H](O)CC1` [Example 33], the IC50 worked out at 10 nM in test [1]; 20 nM in test [2]; 220 nM on ALK1 (aa166-493); 2000 nM at ALK6 (aa168-495); 26 nM in test [3].
`Nc1ncc(-c2ccc([C@]34C[C@H]3CN(CCF)C4)cc2)cc1C(=O)NC12CCC(O)(CC1)CC2` [Example 73, 2-amino-5-(4-((1S,5R)-3-(2-fluoroethyl)-3-azabicyclo[3.1.0]hexan-1-yl)phenyl)-N-(4-hydroxybicyclo[2.2.2]octan-1-yl)nicotinamide]: the IC50 in test [3] worked out at 130 nM.
Take `Nc1ncc(-c2ccc([C@@]34C[C@@H]3CN(C3CCOCC3)C4)cc2)cc1C(=O)N[C@H]1CC[C@@H](O)CC1` [Example 22, 2-amino-N-((1s,4S)-4-hydroxycyclohexyl)-5-(4-((1R,5S)-3-(tetrahydro-2H-pyran-4-yl)-3-azabicyclo[3.1.0]hexan-1-yl)phenyl)nicotinamide]: the IC50 came to 9 nM in test [1]; 16 nM in test [2]; 250 nM on ALK1 (aa166-493); 3200 nM on ALK6 (aa168-495); 41 nM in test [3].
With `C[C@@H]1CCCN1Cc1ccc(-c2cnc(N)c(C(=O)N[C@H]3CC[C@](C)(O)CC3)c2)cc1` [Example 72, 2-amino-N-((1r,4R)-4-hydroxy-4-methylcyclohexyl)-5-(4-(((R)-2-methylpyrrolidin-1-yl)methyl)phenyl)nicotinamide], the IC50 on ALK1 (aa166-493) turned out to be 2950 nM.
Take `C[C@@H]1CCCN1Cc1ccc(-c2cnc(N)c(C(=O)N[C@H]3CC[C@](C)(O)CC3)c2)cc1F` [Example 46, 2-amino-5-(3-fluoro-4-(((R)-2-methylpyrrolidin-1-yl)methyl)phenyl)-N-((1r,4R)-4-hydroxy-4-methylcyclohexyl)nicotinamide]: the IC50 was 24 nM in test [1]; 14600 nM on ALK3 (aa198-525); 25 nM in test [2]; 10000 nM at ALK5 (aa162-503); 10000 nM at ALK6 (aa168-495).
In the case of `C[C@]1(O)CC[C@H](NC(=O)c2cc(-c3ccc([C@@]45C[C@@H]4CN(C4CCOCC4)C5)cc3)cnc2N)CC1` [Example 14, 2-amino-N-((1r,4R)-4-hydroxy-4-methylcyclohexyl)-5-(4-((1R,5S)-3-(tetrahydro-2H-pyran-4-yl)-3-azabicyclo[3.1.0]hexan-1-yl)phenyl)nicotinamide], the half-maximal inhibitory concentration (IC50) in test [3] was determined as 205 nM.
`Nc1ncc(-c2ccc(C3CCNC3)cc2)cc1C(=O)N[C@H]1CC[C@H](O)CC1` (stereo partly drawn) [Example 18, 2-amino-N-((1r,4r)-4-hydroxycyclohexyl)-5-(4-(pyrrolidin-3-yl)phenyl)nicotinamide]: the IC50 on ALK1 (aa166-493) turned out to be 200 nM.
As to `Nc1ncc(-c2ccc([C@@]34C[C@@H]3CN(CCF)C4)cc2)cc1C(=O)NC12CCC(O)(CC1)CC2` [Example 57, 2-amino-5-(4-((1R,5S)-3-(2-fluoroethyl)-3-azabicyclo[3.1.0]hexan-1-yl)phenyl)-N-(4-hydroxybicyclo[2.2.2]octan-1-yl)nicotinamide], the IC50 in test [3] was 144 nM.
Regarding `CC(C)N1CCC(c2ccc(-c3cnc(N)c(C(=O)N[C@H]4CC[C@H](O)CC4)c3)cc2)C1` (stereo partly drawn) [Example 12, 2-amino-N-((1r,4r)-4-hydroxycyclohexyl)-5-(4-(1-isopropylpyrrolidin-3-yl)phenyl)nicotinamide], on ALK1 (aa166-493), the IC50 turned out to be 160 nM.
For `C[C@]1(O)CC[C@H](NC(=O)c2cc(-c3ccc([C@]45C[C@H]4CN(C4CCOCC4)C5)cc3)cnc2N)CC1` [Example 62], the IC50 in test [3] is 134 nM.
